Literature values in US20250161389A1, “Herbal composition for the treatment of malaria” (RNA Therapeutics, Inc., priority 2023, published 2025).

System: Plasmodium
Settings: isolated compound, best activity

With `C=C(C)[C@@H]1CC[C@@]2(C)[C@H]1[C@@H]1CC[C@@H]3[C@@]4(C)CCC(=O)C(C)(C)[C@@H]4[C@H](O)C[C@@]3(C)[C@]1(C)C[C@@H]2O` [resinone (39), resinone] as the compound, how does the IC50 read?
The IC50 was < 1 µg/mL.
